In brackets after ≈: the same amount, converted by molar mass. Activity calls are given as the source filed them. No cut-off for these calls is given here.
Assays:
P2X purinoceptor 7 [1] = biological target: T1, P2X purinoceptor 7 (Homo sapiens, UniProt Q99572); assay: Antagonist activity at human recombinant P2X7 receptor assessed as inhibition of BzATP induced calcium flux by FLIPR assay; assay type: functional
T1 sequence (Q99572 whole entry): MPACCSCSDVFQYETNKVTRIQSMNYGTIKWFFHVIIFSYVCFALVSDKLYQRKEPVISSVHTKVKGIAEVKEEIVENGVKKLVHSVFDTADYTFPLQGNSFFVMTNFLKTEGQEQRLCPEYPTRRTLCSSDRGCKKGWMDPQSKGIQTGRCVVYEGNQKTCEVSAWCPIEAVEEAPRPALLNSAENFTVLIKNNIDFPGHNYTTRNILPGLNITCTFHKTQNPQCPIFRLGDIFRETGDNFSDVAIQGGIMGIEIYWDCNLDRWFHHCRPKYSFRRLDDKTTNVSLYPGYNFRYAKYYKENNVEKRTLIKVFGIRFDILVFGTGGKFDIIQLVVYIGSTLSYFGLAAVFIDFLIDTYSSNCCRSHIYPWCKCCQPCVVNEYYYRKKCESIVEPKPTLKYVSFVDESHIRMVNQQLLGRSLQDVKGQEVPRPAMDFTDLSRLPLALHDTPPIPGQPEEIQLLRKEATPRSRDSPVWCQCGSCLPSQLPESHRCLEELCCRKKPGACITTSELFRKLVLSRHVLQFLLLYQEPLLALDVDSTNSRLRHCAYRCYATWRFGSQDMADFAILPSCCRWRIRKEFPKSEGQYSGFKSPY

P2X purinoceptor 7 [2] = biological target: T2, P2X purinoceptor 7 (Rattus norvegicus, UniProt Q64663); assay: Antagonist activity at rat recombinant P2X7 receptor assessed as inhibition of BzATP induced calcium flux by FLIPR assay; assay type: functional
T2 sequence (Q64663 whole entry): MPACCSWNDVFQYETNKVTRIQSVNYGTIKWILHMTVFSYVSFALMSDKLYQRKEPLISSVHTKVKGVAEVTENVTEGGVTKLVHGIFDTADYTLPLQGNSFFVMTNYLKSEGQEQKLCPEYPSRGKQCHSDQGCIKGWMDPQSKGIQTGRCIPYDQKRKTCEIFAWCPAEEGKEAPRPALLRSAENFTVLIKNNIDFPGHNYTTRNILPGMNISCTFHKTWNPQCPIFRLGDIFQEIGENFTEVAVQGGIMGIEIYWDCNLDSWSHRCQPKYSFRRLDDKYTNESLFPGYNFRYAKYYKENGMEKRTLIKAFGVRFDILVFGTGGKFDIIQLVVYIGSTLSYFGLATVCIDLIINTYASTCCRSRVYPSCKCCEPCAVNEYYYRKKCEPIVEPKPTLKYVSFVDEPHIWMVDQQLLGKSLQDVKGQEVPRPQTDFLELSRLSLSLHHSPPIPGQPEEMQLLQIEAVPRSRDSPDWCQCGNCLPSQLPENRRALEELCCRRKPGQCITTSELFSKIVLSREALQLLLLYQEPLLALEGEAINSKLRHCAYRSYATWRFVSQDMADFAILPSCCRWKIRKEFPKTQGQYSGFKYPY

[3] = Plasma clearance in rat at 5 mg/kg, iv; assay type: ADME, organism-based; set-up: dose 5 mg/kg, route intravenous
[4] = Metabolic stability in rat liver microsomes assessed as compound remaining after 25 mins; assay type: ADME, Microsome; details: read-out: Stability
[5] = Metabolic stability in rat liver microsomes assessed as compound remaining after 1 hr; assay type: ADME, Microsome; details: read-out: Stability
Blood [6] = assay: Inhibition of IL1-beta release in LPS/ATP stimulated human whole blood; assay type: functional, tissue-based
[7] = biological target: P2X2/P2X3 heterotrimeric receptor (Homo sapiens) (UniProt Q9UBL9+P56373); assay: Antagonist activity at P2X2/3 receptor at 10 uM; assay type: functional
[8] = biological target: T3, P2X purinoceptor 3 (Homo sapiens) (UniProt P56373); assay: Antagonist activity at P2X3 receptor at 10 uM; assay type: functional
T3 sequence (whole entry): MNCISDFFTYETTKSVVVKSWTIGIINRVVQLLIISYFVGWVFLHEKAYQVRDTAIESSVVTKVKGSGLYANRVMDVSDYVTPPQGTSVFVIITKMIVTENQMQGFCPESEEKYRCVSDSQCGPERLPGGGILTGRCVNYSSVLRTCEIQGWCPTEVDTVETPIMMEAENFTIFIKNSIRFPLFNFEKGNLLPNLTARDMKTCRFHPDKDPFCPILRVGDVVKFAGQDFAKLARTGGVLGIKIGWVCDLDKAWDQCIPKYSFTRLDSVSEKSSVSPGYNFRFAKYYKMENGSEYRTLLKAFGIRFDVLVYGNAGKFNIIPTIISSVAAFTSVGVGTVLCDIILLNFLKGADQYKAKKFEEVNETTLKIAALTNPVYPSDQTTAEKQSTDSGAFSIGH

[9] = biological target: T4, P2X purinoceptor 4 (Homo sapiens) (UniProt Q99571); assay: Antagonist activity at P2X4 receptor at 10 uM; assay type: functional
T4 sequence (whole entry): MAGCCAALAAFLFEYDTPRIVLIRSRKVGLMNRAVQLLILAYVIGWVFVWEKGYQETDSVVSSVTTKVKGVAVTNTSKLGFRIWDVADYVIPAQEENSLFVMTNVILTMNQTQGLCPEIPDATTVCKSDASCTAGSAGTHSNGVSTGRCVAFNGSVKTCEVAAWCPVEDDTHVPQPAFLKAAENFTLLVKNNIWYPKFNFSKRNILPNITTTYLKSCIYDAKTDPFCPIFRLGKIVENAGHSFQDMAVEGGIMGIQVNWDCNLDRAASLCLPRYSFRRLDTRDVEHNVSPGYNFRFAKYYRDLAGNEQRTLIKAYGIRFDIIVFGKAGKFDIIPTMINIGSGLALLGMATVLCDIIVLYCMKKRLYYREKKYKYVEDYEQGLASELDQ

[10] = biological target: P2Y purinoceptor 2 (Homo sapiens) (UniProt P41231); assay: Antagonist activity at P2Y2 receptor at 10 uM; assay type: functional
Sequence of P2Y purinoceptor 2 (Homo sapiens) (P41231 whole entry): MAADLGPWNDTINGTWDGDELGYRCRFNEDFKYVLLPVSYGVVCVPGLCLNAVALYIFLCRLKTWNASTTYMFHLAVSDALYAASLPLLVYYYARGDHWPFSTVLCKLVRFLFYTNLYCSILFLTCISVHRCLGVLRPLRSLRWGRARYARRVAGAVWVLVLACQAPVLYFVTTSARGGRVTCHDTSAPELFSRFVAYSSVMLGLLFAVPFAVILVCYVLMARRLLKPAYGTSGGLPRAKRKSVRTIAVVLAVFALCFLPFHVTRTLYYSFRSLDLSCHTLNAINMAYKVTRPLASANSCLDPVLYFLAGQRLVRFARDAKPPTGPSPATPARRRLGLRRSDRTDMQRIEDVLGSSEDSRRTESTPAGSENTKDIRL

[11] = Volume of distribution at steady state in rat at 5 mg/kg, iv; assay type: ADME, organism-based; set-up: dose 5 mg/kg, route intravenous; details: in vivo, read-out: Vdss
[12] = Half life in rat at 5 mg/kg, iv; assay type: ADME, organism-based; set-up: dose 5 mg/kg, route intravenous; details: in vivo
Blood [13] = assay: Inhibition of IL18 release in LPS/ATP stimulated human whole blood; assay type: functional, tissue-based
[14] = Oral bioavailability in rat; assay type: ADME, organism-based; details: in vivo
[15] = Aqueous solubility of the compound; assay type: physicochemical; details: buffer

COc1ccc(NC(=O)N2CCN(C(=Nc3ccccc3C)NC#N)CC2c2ccccc2)cc1OC (configuration not stated)
IC50 (P2X purinoceptor 7 [1]): 25 nM
IC50 (P2X purinoceptor 7 [2]): 178 nM

CC(C)C1CN(C(=O)Nc2ccc(Cl)cc2)CCN1C(=Nc1cccc2ncccc12)NC#N (configuration not stated)
IC50 (P2X purinoceptor 7 [1]): 40 nM
IC50 (P2X purinoceptor 7 [2]): 57 nM
clearance [3]: 53.3 mL/min/kg
remaining at 25 min [4]: 43%
remaining at 1 h [5]: 43%
IC50 (Blood [6]): 121 nM

Cn1cnc2c(N=C(NC#N)N3CCN(C(=O)Nc4ccc(Cl)cc4)C(c4ccccc4)C3)cccc21 (configuration not stated)
IC50 (P2X purinoceptor 7 [1]): 1660 nM
IC50 (P2X purinoceptor 7 [2]): 5190 nM

Cc1ccccc1N/C(=N/C(N)=O)N1CCN(C(=O)Nc2ccc(Cl)cc2)C(c2ccccc2)C1 (configuration not stated)
IC50 (P2X purinoceptor 7 [1]): 6400 nM
IC50 (P2X purinoceptor 7 [2]): 10300 nM

Cc1ccccc1NC(=O)N1CCN(C(=O)Nc2ccc(Cl)cc2)C(c2ccccc2)C1 (configuration not stated)
IC50 (P2X purinoceptor 7 [1]): 780 nM
IC50 (P2X purinoceptor 7 [2]): 620 nM

Cc1ccccc1N=C(NC#N)N1CCN(C(=O)N(C)c2ccc(Cl)cc2)C(c2ccccc2)C1 (configuration not stated)
IC50 (P2X purinoceptor 7 [1]): 1030 nM
IC50 (P2X purinoceptor 7 [2]): 290 nM

Cc1ccc(N/C(=N\C#N)N2CCN(C(=O)Nc3ccc(Cl)cc3)CC2C(C)C)c2cccnc12 (configuration not stated)
remaining at 1 h [5]: 64%

CC(C)C1CN(C(=Nc2cccc3ncccc23)NC#N)CCN1C(=O)Nc1ccc(Cl)cc1 (configuration not stated)
IC50 (P2X purinoceptor 7 [1]): 67 nM
IC50 (P2X purinoceptor 7 [2]): 93 nM
IC50 (Blood [6]): 880 nM

CC(C)C1CN(C(=O)Nc2ccc(Cl)cc2)CCN1/C(=N/C#N)Nc1cccc2[nH]ccc12 (configuration not stated)
IC50 (P2X purinoceptor 7 [1]): 45 nM
IC50 (P2X purinoceptor 7 [2]): 110 nM
IC50 (Blood [6]): 470 nM

N#C/N=C(\Nc1cccnc1)N1CCN(C(=O)Nc2ccc(Cl)cc2)C(c2ccccc2)C1 (configuration not stated)
IC50 (P2X purinoceptor 7 [1]): 1330 nM
IC50 (P2X purinoceptor 7 [2]): 2040 nM

Cc1ccccc1N/C(=C/[N+](=O)[O-])N1CCN(C(=O)Nc2ccc(Cl)cc2)C(c2ccccc2)C1 (configuration not stated)
IC50 (P2X purinoceptor 7 [1]): 310 nM
IC50 (P2X purinoceptor 7 [2]): 3110 nM

Cc1ccccc1N=C(NC#N)N1CCN(Cc2ccc(Cl)cc2)C(c2ccccc2)C1 (configuration not stated)
IC50 (P2X purinoceptor 7 [1]): > 10000 nM
IC50 (P2X purinoceptor 7 [2]): > 10000 nM

CC(C)C1CN(C(=O)Nc2cccc(F)c2)CCN1C(=Nc1cccc2[nH]ncc12)NC#N (configuration not stated)
IC50 (P2X purinoceptor 7 [1]): 250 nM
IC50 (Blood [6]): 1590 nM

Cc1ccc2c(N/C(=N\C#N)N3CCN(C(=O)Nc4ccc(Cl)cc4)CC3C(C)C)cccc2n1 (configuration not stated)
IC50 (Blood [6]): 120 nM
Activity [7]: inactive
Activity [8]: inactive
Activity [9]: inactive
Activity [10]: inactive

COc1ccc(CC(=O)N2CCN(C(=Nc3ccccc3C)NC#N)CC2c2ccccc2)cc1OC (configuration not stated)
IC50 (P2X purinoceptor 7 [1]): 630 nM

CC(C)C1CN(C(=O)Nc2cccc(F)c2)CCN1C(=Nc1cccc2c1CCCN2)NC#N (configuration not stated)
IC50 (P2X purinoceptor 7 [1]): 60 nM
IC50 (Blood [6]): 460 nM

CC(C)C1CN(C(=O)Nc2ccc(Cl)cc2)CCN1C(=Nc1cccc2c1CCNC2)NC#N (configuration not stated)
IC50 (P2X purinoceptor 7 [1]): 110 nM
IC50 (P2X purinoceptor 7 [2]): 180 nM
IC50 (Blood [6]): 210 nM

CN(C)Cc1ccccc1N=C(NC#N)N1CCN(C(=O)Nc2ccc(Cl)cc2)C(c2ccccc2)C1 (configuration not stated)
IC50 (P2X purinoceptor 7 [1]): 480 nM
IC50 (P2X purinoceptor 7 [2]): 1070 nM

Cc1ccccc1N=C(NC#N)N1CCN(C(=O)Nc2ccc(Cl)cc2)C(c2ccccc2)C1 (configuration not stated)
IC50 (P2X purinoceptor 7 [1]): 132 nM
IC50 (P2X purinoceptor 7 [2]): 95 nM
Vd [11]: 5.3 L/kg
clearance [3]: 68.3 mL/min/kg
half-life [12]: 0.9 h
IC50 (Blood [6]): 1190 nM
IC50 (Blood [13]): 1260 nM

Cc1ccccc1N/C(=N\C#N)N1CCN(C(=O)Nc2ccc(Cl)cc2)C(C(C)C)C1 (configuration not stated)
IC50 (P2X purinoceptor 7 [1]): 112 nM
IC50 (P2X purinoceptor 7 [2]): 110 nM
IC50 (Blood [6]): 980 nM

Cc1ccccc1N=C(NC#N)N1CCN(C(=O)Nc2ccc(Cl)cc2)CC1C(C)C (configuration not stated)
IC50 (P2X purinoceptor 7 [1]): 60 nM
IC50 (P2X purinoceptor 7 [2]): 125 nM

Cc1ccccc1N=C(NC#N)N1CCN(S(=O)(=O)c2ccc(Cl)cc2)C(c2ccccc2)C1 (configuration not stated)
IC50 (P2X purinoceptor 7 [1]): 540 nM
IC50 (P2X purinoceptor 7 [2]): 4060 nM

CC(C)C1CN(C(=O)Nc2ccc(Cl)cc2)CCN1/C(=N/C#N)Nc1cccc2nc(F)ccc12 (configuration not stated)
remaining at 1 h [5]: 60%
IC50 (Blood [6]): 2640 nM

N#CNC(=Nc1cccc2[nH]ccc12)N1CCN(C(=O)Nc2ccc(Cl)cc2)C(c2ccccc2)C1 (configuration not stated)
IC50 (P2X purinoceptor 7 [1]): 130 nM
IC50 (P2X purinoceptor 7 [2]): 56 nM
IC50 (Blood [6]): 12200 nM

Cc1ccc2c(N=C(NC#N)N3CCN(C(=O)Nc4ccc(Cl)cc4)CC3C(C)C)cccc2n1 (configuration not stated)
IC50 (P2X purinoceptor 7 [1]): 93 nM
IC50 (P2X purinoceptor 7 [2]): 151 nM
Vd [11]: 11.8 L/kg
clearance [3]: 23.3 mL/min/kg
half-life [12]: 4.4 h
remaining at 1 h [5]: 74%
bioavailability [14]: 5%
solubility [15]: 19 µg/mL (≈ 38.8 µM)

CC(C)C1CN(C(=O)Nc2cccc(F)c2)CCN1C(=Nc1cccc2occc12)NC#N (configuration not stated)
IC50 (P2X purinoceptor 7 [1]): 24900 nM
